Laboratory results as given in the kinase profiling compilation of Christmann-Franck et al. (2016).

Columns and labels:
Experiment in all cases: KINOMEscan competition binding
Settings in all cases: compound 10.0 µM
ABL2 (human) = ABL2 (human) (UniProt P42684)
ADCK4 (human) = ADCK4 (human) (UniProt Q96D53)
BMPR1A (human) = BMPR1A (human) (UniProt P36894)
CDC42BPB (human) = CDC42BPB (human) (UniProt Q9Y5S2)
CDK11B (human) = CDK11B (human) (UniProt P21127)
CDK16 (human) = CDK16 (human) (UniProt Q00536)
CDK17 (human) = CDK17 (human) (UniProt Q00537)
CDK7 (human) = CDK7 (human) (UniProt P50613)
CDK9 (human) = CDK9 (human) (UniProt P50750)
CLK4 (human) = CLK4 (human) (UniProt Q9HAZ1)
CPK1 (P.falciparum) = tested on: CPK1 (P.falciparum)
CSK (human) = CSK (human) (UniProt P41240)
DMPK (human) = DMPK (human) (UniProt Q09013)
[1] = tested on: EGFR (human), P00533 [752-759 del]
EIF2AK1 (human) = EIF2AK1 (human) (UniProt Q9BQI3)
EPHA7 (human) = EPHA7 (human) (UniProt Q15375)
ERBB2 (human) = ERBB2 (human) (UniProt P04626)
ERN1 (human) = ERN1 (human) (UniProt O75460)
FER (human) = FER (human) (UniProt P16591)
HIPK1 (human) = HIPK1 (human) (UniProt Q86Z02)
HIPK2 (human) = HIPK2 (human) (UniProt Q9H2X6)
Sequence of HIPK2 (human) (Q9H2X6 whole entry, looked up): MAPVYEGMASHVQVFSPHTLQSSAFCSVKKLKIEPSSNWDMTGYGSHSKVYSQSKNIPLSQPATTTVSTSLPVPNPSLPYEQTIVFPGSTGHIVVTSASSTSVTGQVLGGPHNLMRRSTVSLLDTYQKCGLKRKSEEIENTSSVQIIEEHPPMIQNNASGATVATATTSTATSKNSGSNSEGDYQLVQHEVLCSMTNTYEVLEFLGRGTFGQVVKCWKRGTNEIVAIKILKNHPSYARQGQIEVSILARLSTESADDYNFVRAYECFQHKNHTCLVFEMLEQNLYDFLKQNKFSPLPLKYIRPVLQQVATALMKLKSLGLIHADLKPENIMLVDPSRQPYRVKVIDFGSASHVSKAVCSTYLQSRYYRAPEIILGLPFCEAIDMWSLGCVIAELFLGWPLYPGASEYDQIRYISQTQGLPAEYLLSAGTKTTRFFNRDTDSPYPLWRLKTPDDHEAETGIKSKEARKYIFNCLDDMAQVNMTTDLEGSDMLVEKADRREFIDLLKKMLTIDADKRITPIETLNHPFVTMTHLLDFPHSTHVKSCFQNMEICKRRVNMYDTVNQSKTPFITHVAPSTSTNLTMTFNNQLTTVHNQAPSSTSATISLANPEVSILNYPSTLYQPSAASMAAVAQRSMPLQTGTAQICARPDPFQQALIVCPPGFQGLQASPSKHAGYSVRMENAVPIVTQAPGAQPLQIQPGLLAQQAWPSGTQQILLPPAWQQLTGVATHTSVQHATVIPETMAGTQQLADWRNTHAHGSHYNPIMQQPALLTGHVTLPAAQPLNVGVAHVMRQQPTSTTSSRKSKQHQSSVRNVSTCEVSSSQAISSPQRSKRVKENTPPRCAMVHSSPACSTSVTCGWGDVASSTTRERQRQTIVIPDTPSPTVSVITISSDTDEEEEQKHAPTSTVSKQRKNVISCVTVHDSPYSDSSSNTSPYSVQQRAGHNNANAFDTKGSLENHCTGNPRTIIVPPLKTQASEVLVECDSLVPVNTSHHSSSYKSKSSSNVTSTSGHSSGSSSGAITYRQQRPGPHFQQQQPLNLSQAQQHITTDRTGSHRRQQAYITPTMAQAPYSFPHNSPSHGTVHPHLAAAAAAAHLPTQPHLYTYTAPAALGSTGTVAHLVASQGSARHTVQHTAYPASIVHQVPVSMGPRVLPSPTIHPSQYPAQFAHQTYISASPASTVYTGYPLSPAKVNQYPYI

IKBKE (human) = IKBKE (human) (UniProt Q14164)
[2] = tested on: KIT (human), P10721 [L576P]
LCK (human) = LCK (human) (UniProt P06239)
LRRK2 (human) = LRRK2 (human) (UniProt Q5S007)
MKNK1 (human) = MKNK1 (human) (UniProt Q9BUB5)
MYO3A (human) = MYO3A (human) (UniProt Q8NEV4)
NTRK1 (human) = NTRK1 (human) (UniProt P04629)
PIK3CD (human) = PIK3CD (human) (UniProt O00329)
PIK3CG (human) = PIK3CG (human) (UniProt P48736)
PRKAA1 (human) = PRKAA1 (human) (UniProt Q13131)
PRKCD (human) = PRKCD (human) (UniProt Q05655)
Sequence of PRKCD (human) (Q05655 whole entry, looked up): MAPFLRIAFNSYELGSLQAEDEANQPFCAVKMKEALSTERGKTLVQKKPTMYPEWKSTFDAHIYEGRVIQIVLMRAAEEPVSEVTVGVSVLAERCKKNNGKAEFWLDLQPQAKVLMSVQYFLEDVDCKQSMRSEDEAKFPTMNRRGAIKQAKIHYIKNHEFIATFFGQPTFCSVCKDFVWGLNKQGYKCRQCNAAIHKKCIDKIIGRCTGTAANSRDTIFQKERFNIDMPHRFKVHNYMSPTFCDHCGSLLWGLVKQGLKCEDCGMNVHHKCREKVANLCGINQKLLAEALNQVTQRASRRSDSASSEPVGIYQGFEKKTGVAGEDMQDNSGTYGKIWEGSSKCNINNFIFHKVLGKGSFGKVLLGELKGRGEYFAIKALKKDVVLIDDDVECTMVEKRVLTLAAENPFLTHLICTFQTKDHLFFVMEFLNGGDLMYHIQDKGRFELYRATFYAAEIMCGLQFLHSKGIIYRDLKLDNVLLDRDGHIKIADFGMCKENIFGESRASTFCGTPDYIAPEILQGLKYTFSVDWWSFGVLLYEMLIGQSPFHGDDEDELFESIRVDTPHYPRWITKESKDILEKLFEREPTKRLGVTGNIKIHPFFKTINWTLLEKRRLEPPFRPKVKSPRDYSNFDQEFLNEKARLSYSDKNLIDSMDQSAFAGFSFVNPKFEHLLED

RPS6KA5 KD1 (human) = RPS6KA5 KD1 (human) (UniProt O75582)
RPS6KA5 KD2 (human) = RPS6KA5 KD2 (human) (UniProt O75582)
SIK2 (human) = SIK2 (human) (UniProt Q9H0K1)
Sequence of SIK2 (human) (Q9H0K1 whole entry, looked up): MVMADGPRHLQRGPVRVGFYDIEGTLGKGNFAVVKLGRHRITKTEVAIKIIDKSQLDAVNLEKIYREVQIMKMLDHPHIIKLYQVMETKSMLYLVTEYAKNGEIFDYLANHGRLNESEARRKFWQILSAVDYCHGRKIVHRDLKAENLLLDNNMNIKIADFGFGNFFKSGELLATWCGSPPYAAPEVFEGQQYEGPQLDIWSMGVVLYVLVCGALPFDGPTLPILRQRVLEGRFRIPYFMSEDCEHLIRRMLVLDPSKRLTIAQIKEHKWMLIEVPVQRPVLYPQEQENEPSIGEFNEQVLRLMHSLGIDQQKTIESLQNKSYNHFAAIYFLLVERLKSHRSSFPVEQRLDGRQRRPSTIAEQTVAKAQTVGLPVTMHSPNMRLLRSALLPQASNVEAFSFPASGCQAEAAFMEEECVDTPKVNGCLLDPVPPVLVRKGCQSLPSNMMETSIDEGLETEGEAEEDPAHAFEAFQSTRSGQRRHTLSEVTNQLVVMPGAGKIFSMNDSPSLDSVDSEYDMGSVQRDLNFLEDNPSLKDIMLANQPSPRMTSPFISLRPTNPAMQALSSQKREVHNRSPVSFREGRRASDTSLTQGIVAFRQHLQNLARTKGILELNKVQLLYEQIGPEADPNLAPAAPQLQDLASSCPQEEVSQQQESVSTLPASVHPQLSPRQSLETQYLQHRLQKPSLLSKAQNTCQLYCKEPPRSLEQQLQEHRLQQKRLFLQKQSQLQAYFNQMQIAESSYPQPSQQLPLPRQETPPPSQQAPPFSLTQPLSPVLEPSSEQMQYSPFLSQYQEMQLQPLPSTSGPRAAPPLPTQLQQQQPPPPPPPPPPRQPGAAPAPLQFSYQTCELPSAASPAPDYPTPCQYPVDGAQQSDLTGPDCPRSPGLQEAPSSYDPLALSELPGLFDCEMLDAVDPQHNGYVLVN

SRPK1 (human) = SRPK1 (human) (UniProt Q96SB4)
Sequence of SRPK1 (human) (Q96SB4 whole entry, looked up): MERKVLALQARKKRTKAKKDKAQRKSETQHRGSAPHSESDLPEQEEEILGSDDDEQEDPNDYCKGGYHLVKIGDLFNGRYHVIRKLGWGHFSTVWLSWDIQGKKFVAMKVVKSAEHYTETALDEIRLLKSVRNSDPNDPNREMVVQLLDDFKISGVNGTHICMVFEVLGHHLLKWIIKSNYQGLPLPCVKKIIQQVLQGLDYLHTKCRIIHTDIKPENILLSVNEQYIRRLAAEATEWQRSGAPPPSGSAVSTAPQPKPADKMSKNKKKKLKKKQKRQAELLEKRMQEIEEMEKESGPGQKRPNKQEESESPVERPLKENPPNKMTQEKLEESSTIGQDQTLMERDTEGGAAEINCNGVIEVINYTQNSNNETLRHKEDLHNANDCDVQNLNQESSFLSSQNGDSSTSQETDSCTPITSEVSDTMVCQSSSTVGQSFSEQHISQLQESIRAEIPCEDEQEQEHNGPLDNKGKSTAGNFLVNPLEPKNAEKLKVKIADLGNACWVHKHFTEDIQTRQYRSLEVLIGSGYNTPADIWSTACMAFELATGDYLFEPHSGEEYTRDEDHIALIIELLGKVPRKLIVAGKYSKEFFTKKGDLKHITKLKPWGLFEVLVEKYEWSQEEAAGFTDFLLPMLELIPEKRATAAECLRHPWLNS

STK10 (human) = STK10 (human) (UniProt O94804)
STK17B (human) = STK17B (human) (UniProt O94768)
STK39 (human) = STK39 (human) (UniProt Q9UEW8)
YSK4 (human) = YSK4 (human) (UniProt Q56UN5)
Sequence of YSK4 (human) (Q56UN5 whole entry, looked up): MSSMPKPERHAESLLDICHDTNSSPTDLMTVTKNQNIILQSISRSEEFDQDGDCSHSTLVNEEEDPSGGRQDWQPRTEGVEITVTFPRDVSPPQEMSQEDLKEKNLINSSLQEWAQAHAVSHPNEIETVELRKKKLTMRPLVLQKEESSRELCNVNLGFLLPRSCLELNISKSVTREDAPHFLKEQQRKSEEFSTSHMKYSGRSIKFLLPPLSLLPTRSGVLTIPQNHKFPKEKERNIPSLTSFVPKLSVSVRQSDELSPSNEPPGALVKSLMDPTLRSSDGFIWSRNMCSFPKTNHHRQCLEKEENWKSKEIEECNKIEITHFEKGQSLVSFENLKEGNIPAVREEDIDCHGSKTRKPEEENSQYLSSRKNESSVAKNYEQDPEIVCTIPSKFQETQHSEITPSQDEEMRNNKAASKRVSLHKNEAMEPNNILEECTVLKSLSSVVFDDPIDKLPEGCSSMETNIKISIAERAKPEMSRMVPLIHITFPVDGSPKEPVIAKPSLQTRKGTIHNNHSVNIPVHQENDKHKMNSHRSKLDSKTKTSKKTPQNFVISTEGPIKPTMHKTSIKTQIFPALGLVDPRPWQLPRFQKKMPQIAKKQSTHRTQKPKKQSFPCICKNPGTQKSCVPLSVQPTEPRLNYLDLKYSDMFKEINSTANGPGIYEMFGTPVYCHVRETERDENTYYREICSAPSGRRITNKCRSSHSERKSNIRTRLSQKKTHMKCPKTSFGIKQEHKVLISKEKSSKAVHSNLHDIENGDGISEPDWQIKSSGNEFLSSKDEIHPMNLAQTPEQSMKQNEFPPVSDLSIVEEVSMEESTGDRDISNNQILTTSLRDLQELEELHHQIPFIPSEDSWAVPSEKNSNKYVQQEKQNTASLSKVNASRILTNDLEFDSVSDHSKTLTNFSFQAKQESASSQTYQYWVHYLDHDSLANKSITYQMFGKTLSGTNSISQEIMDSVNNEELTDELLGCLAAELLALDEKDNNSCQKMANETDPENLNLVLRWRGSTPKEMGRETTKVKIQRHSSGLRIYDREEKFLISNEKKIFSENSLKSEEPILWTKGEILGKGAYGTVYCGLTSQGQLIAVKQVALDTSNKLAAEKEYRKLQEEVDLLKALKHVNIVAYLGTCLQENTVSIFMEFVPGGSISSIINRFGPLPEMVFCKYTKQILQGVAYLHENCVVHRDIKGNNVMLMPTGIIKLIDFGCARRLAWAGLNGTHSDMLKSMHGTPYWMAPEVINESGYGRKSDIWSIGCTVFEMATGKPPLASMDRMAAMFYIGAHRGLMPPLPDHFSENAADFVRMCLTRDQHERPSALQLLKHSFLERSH

Compound	kinase still bound, per cent of control (ABL2 (human)) [%]	kinase still bound, per cent of control (ADCK4 (human)) [%]	kinase still bound, per cent of control (BMPR1A (human)) [%]	kinase still bound, per cent of control (CDC42BPB (human)) [%]	kinase still bound, per cent of control (CDK11B (human)) [%]	kinase still bound, per cent of control (CDK16 (human)) [%]	kinase still bound, per cent of control (CDK17 (human)) [%]	kinase still bound, per cent of control (CDK7 (human)) [%]	kinase still bound, per cent of control (CDK9 (human)) [%]	kinase still bound, per cent of control (CLK4 (human)) [%]	kinase still bound, per cent of control (CPK1 (P.falciparum)) [%]	kinase still bound, per cent of control (CSK (human)) [%]	kinase still bound, per cent of control (DMPK (human)) [%]	kinase still bound, per cent of control [1] [%]	kinase still bound, per cent of control (EIF2AK1 (human)) [%]	kinase still bound, per cent of control (EPHA7 (human)) [%]	kinase still bound, per cent of control (ERBB2 (human)) [%]	kinase still bound, per cent of control (ERN1 (human)) [%]	kinase still bound, per cent of control (FER (human)) [%]	kinase still bound, per cent of control (HIPK1 (human)) [%]	also measured
O=C(Nc1cccc(Nc2ncc(Br)c(NCCc3cnc[nH]3)n2)c1)N1CCCC1	7.8	33	0.8	82	66	40	77	0.55	66	28	3.8	24	9.1	66	100	44	88	34	47	1.2	kinase still bound, per cent of control (HIPK2 (human)): 1.6%; kinase still bound, per cent of control (IKBKE (human)): 4.6%; kinase still bound, per cent of control [2]: 0%; kinase still bound, per cent of control (LCK (human)): 3.4%; kinase still bound, per cent of control (LRRK2 (human)): 11%; kinase still bound, per cent of control (MKNK1 (human)): 100%; kinase still bound, per cent of control (MYO3A (human)): 28%; kinase still bound, per cent of control (NTRK1 (human)): 0.2%; kinase still bound, per cent of control (PIK3CD (human)): 84%; kinase still bound, per cent of control (PIK3CG (human)): 58%; kinase still bound, per cent of control (PRKAA1 (human)): 0.35%; kinase still bound, per cent of control (PRKCD (human)): 12%; kinase still bound, per cent of control (RPS6KA5 KD1 (human)): 57%; kinase still bound, per cent of control (RPS6KA5 KD2 (human)): 31%; kinase still bound, per cent of control (SIK2 (human)): 8%; kinase still bound, per cent of control (SRPK1 (human)): 4.2%; kinase still bound, per cent of control (STK10 (human)): 4.6%; kinase still bound, per cent of control (STK17B (human)): 2.4%; kinase still bound, per cent of control (STK39 (human)): 63%; kinase still bound, per cent of control (YSK4 (human)): 0%
O=c1cc(N2CCOCC2)oc2c(-c3cccc4c3sc3ccccc34)cccc12	92	73	94	88	95	97	100	100	98	95	98	100	89	100	100	85	100	93	100	93	kinase still bound, per cent of control (HIPK2 (human)): 100%; kinase still bound, per cent of control (IKBKE (human)): 100%; kinase still bound, per cent of control [2]: 66%; kinase still bound, per cent of control (LCK (human)): 90%; kinase still bound, per cent of control (LRRK2 (human)): 100%; kinase still bound, per cent of control (MKNK1 (human)): 100%; kinase still bound, per cent of control (MYO3A (human)): 89%; kinase still bound, per cent of control (NTRK1 (human)): 81%; kinase still bound, per cent of control (PIK3CD (human)): 3.3%; kinase still bound, per cent of control (PIK3CG (human)): 1.3%; kinase still bound, per cent of control (PRKAA1 (human)): 100%; kinase still bound, per cent of control (PRKCD (human)): 80%; kinase still bound, per cent of control (RPS6KA5 KD1 (human)): 100%; kinase still bound, per cent of control (RPS6KA5 KD2 (human)): 80%; kinase still bound, per cent of control (SIK2 (human)): 75%; kinase still bound, per cent of control (SRPK1 (human)): 100%; kinase still bound, per cent of control (STK10 (human)): 100%; kinase still bound, per cent of control (STK17B (human)): 100%; kinase still bound, per cent of control (STK39 (human)): 100%; kinase still bound, per cent of control (YSK4 (human)): 100%
CCN1CCN(C(=O)Cc2ccc(Nc3ncc(F)c(Nc4ccc(C(=O)Nc5ccccc5Cl)cc4)n3)cc2)CC1	20	0.45	3.3	100	87	40	35	22	73	28	29	73	100	56	66	55	100	91	100	3.2	kinase still bound, per cent of control (HIPK2 (human)): 5%; kinase still bound, per cent of control (IKBKE (human)): 100%; kinase still bound, per cent of control [2]: 3.2%; kinase still bound, per cent of control (LCK (human)): 6.6%; kinase still bound, per cent of control (LRRK2 (human)): 73%; kinase still bound, per cent of control (MKNK1 (human)): 100%; kinase still bound, per cent of control (MYO3A (human)): 100%; kinase still bound, per cent of control (NTRK1 (human)): 19%; kinase still bound, per cent of control (PIK3CD (human)): 41%; kinase still bound, per cent of control (PIK3CG (human)): 65%; kinase still bound, per cent of control (PRKAA1 (human)): 32%; kinase still bound, per cent of control (PRKCD (human)): 60%; kinase still bound, per cent of control (RPS6KA5 KD1 (human)): 100%; kinase still bound, per cent of control (RPS6KA5 KD2 (human)): 66%; kinase still bound, per cent of control (SIK2 (human)): 20%; kinase still bound, per cent of control (SRPK1 (human)): 1.9%; kinase still bound, per cent of control (STK10 (human)): 3.4%; kinase still bound, per cent of control (STK17B (human)): 13%; kinase still bound, per cent of control (STK39 (human)): 100%; kinase still bound, per cent of control (YSK4 (human)): 7.2%
